Results from ChEMBL document CHEMBL1201862, “PubChem BioAssay data set” (2004).
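All cell lines were grown in 96-well plates and treated with compound for 48 hours. Here, GI50 denotes the concentration required for 50% inhibition of growth.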 The source made the active and inactive calls. Cut-off read from the data, not from the text of the source: active = GI50 up to about 1.1 µM and inactive = higher.

What was measured:
Experiment in all cases: DTP human tumour cell line panel, 48 h
SW-620 = system: SW-620
U-251 = system: U-251
SK-MEL-5 = system: SK-MEL-5
LOX IMVI = system: LOX IMVI
CAKI-1 = system: CAKI-1
Malme-3M = system: Malme-3M
A549 = system: A549
OVCAR-5 = system: OVCAR-5
SF-539 = system: SF-539
BT-549 = system: BT-549
SNB-19 = system: SNB-19
MOLT-4 = system: MOLT-4
Hs-578T = system: Hs-578T
MDA-MB-231 = system: MDA-MB-231
NCI-H522 = system: NCI-H522
UO-31 = system: UO-31
SN12C = system: SN12C
T47D = system: T47D
SK-MEL-28 = system: SK-MEL-28
DLD-1 = system: DLD-1

Measured: GI50

O=C1N/C(=N/N=C\c2ccccc2)N/C1=C/c1ccccc1
inactive: SW-620 38.5 µM | U-251 33.7 µM | SK-MEL-5 35.4 µM | LOX IMVI 35.9 µM | CAKI-1 27.8 µM | Malme-3M 34.2 µM | A549 35.7 µM | OVCAR-5 21.6 µM | SF-539 20.5 µM | BT-549 22.9 µM | SNB-19 21.6 µM | MOLT-4 14.4 µM | Hs-578T 27.3 µM | MDA-MB-231 47 µM | NCI-H522 23.1 µM | UO-31 41.9 µM | SN12C 39.7 µM | T47D 30.3 µM | SK-MEL-28 85.1 µM

COc1ccc(C(OCC2OC(n3cc(C)c(=O)[nH]c3=O)CC2n2cc(Cn3cc(Cl)c(=O)[nH]c3=O)nn2)(c2ccccc2)c2ccccc2)cc1 (stereo not given)
inactive: SW-620 > 100 µM | U-251 24.8 µM | SK-MEL-5 > 100 µM | LOX IMVI > 100 µM | CAKI-1 > 100 µM | Malme-3M > 100 µM | A549 > 100 µM | OVCAR-5 > 100 µM | SF-539 > 100 µM | BT-549 82.6 µM | SNB-19 > 100 µM | MOLT-4 4.7 µM | Hs-578T 65 µM | MDA-MB-231 27.6 µM | NCI-H522 > 100 µM | UO-31 > 100 µM | SN12C > 100 µM | T47D > 100 µM | SK-MEL-28 87.5 µM

CC(=O)OCC1OC(N2C(=O)/C(=N\NC(N)=S)c3ccc([N+](=O)[O-])cc32)C(OC(C)=O)C1OC(C)=O (stereo not given)
inactive: SW-620 36.9 µM | U-251 28.1 µM | SK-MEL-5 32 µM | LOX IMVI 19.1 µM | CAKI-1 38.4 µM | Malme-3M 33.7 µM | A549 40.8 µM | OVCAR-5 61.2 µM | SF-539 24.1 µM | DLD-1 29.6 µM | SNB-19 62.5 µM | MOLT-4 15.3 µM | NCI-H522 15 µM | SN12C 36.1 µM | SK-MEL-28 29.2 µM

COC1CC(N)(c2ccccc2)C(O)C(C)O1 (stereo not given)
inactive: SW-620 > 100 µM | U-251 > 100 µM | SK-MEL-5 > 100 µM | LOX IMVI > 100 µM | CAKI-1 > 100 µM | Malme-3M > 100 µM | A549 > 100 µM | OVCAR-5 > 100 µM | SF-539 > 100 µM | BT-549 > 100 µM | SNB-19 > 100 µM | MOLT-4 > 100 µM | Hs-578T > 100 µM | MDA-MB-231 > 100 µM | NCI-H522 > 100 µM | UO-31 > 100 µM | SN12C > 100 µM | T47D > 100 µM | SK-MEL-28 > 100 µM

COc1ccc(C2NCCc3c2[nH]c2ccccc32)cc1 (stereo not given)
inactive: SW-620 > 100 µM | U-251 > 100 µM | SK-MEL-5 22.5 µM | LOX IMVI > 100 µM | Malme-3M 27 µM | A549 48.2 µM | OVCAR-5 > 100 µM | SF-539 > 100 µM | DLD-1 > 100 µM | SNB-19 > 100 µM | MOLT-4 > 100 µM | NCI-H522 > 100 µM | UO-31 42.3 µM | SN12C > 100 µM | SK-MEL-28 5.22 µM

NC(=O)NC(=O)C1CCC(=O)N1S(=O)(=O)c1ccc(Cl)cc1 (stereo not given)
inactive: SW-620 > 100 µM | U-251 > 100 µM | SK-MEL-5 > 100 µM | CAKI-1 > 100 µM | Malme-3M > 100 µM | A549 > 100 µM | SF-539 > 100 µM | DLD-1 > 100 µM | SNB-19 > 100 µM | MOLT-4 > 100 µM | NCI-H522 63 µM | UO-31 > 100 µM | SN12C > 100 µM | SK-MEL-28 > 100 µM

O=C1N2Cc3c4ccc5c3CN3C(=O)N6Cc7c(ccc(c7CN1C6(c1ccccc1)C23c1ccccc1)OCCOCCOc1cc(Br)c(Br)cc1OCCOCCO4)OCCOCCOc1cc(Br)c(Br)cc1OCCOCCO5 (stereo not given)
inactive: SW-620 15.1 µM | U-251 > 100 µM | SK-MEL-5 44.3 µM | CAKI-1 > 100 µM | Malme-3M 75.5 µM | A549 > 100 µM | SF-539 20.1 µM | DLD-1 20.2 µM | SNB-19 > 100 µM | MOLT-4 > 100 µM | NCI-H522 > 100 µM | UO-31 > 100 µM | SN12C 39.3 µM | SK-MEL-28 > 100 µM

CSc1nc2c(nc(N)n2C2OC(CO)C(O)C(O)C2O)c(=O)n1C (stereo not given)
inactive: SW-620 > 100 µM | U-251 > 100 µM | SK-MEL-5 > 100 µM | LOX IMVI > 100 µM | CAKI-1 > 100 µM | Malme-3M > 100 µM | A549 > 100 µM | SF-539 > 100 µM | DLD-1 > 100 µM | SNB-19 > 100 µM | MOLT-4 > 100 µM | NCI-H522 > 100 µM | UO-31 > 100 µM | SN12C > 100 µM | SK-MEL-28 > 100 µM
